# From US20120222139A1, “Cancer Specific Mitotic Network” (THE REGENTS OF THE UNIVERSITY OF CALIFORNIA, priority 2009, published 2012)
# Key:
# Assay type in all cases: cell-based, human
# [1] = tested on: sensitive (HCC38) or resistant (MDAMB175) breast cancer cell line; test: Treatment with mitotic apparatus inhibitors alone or in combination of two; conditions: HCC38 (sensitive) and MDAMB175 (resistant), FIG. 8
# Procedure: Dose response to GSK461364, GSK923295 and GSK1070916 was assayed individually or in combination in different breast cancer subtypes. FIG. 8A is a graph of response to single and combination doses of PLK1 and AURKB inhibitors; FIG. 8B is a graph of response to single and combination doses of PLK1 and CENPE inhibitors; and FIG. 8C is a graph of response to single and combination doses of CENPE and AURKB inhibitors.
# In that case, combinations of mitotic apparatus inhibitors would not be expected to show additive or synergistic effects. We tested this by treatment of sensitive and resistant breast cancer cell lines with GSK461364 or GSK1070916 or GSK923295 alone and in combination two of them at different doses. […] That being the case, deployment of drugs targeting other genes in the mitotic apparatus network might contribute to development of a mitotic apparatus therapeutic armamentarium that could effectively counter development of drug resistance and provide durable treatments that will be effective against metastasis. Small molecular inhibitors have already been reported as under development for AURKA (MLN8054), CHEK2 (PD-321852). […] Work developing the mitotic network informs that inhibitors of these genes will be preferentially be effective in tumors with high MNAIs and are thus top candidates for drug development.
# This was tested by treating a sensitive (HCC38) or resistant (MDAMB175) breast cancer cell line with GSK461364, GSK1070916 and GSK923295 either alone or in combination.
# [2] = tested on: panel of 53 breast cancer cell lines; test: Cell viability/growth assay and dose response (GI50), CellTiter-Glo; conditions: for GI50 values in cell lines with a high MNAI as compared to a low MNAI: breast cancer cell lines, FIG. 6; for effectiveness by breast cancer subtype: panel of 50 breast cancer cell lines that included both basal and luminal cell lines
# Procedure: Human non-malignant and breast cancer cell lines, established from normal and human breast cancer samples, are publicly available and were used in the development of the mitotic network. The source of these cells includes nearly 55 well-characterized breast cell lines with genomic information (i.e. gene copy numbers of various genes) and gene expression data such as gene signatures characteristic of each cell line. Information that directs optimal incubation conditions are detailed in The cell incubational condition of the cell lines was shown reference (Neve, R. M. et al. Cancer Cell 10, 515-527 (2006).
# The inhibitor compounds used were small molecule inhibitors. Theses small-molecule inhibitors for PLK1 (GSK461364), CENPE (GSK923295) and AURKB (GSK1070916) were provided by GlaxoSmithKline Inc. Stock solutions were made at a concentration of 10 mM in DMSO and stored at −20° C. Compounds were diluted (1:5 serial dilution), ranging between 0.0768 nM to 30 μM.
# The cell viability and growth assay and dose response (GI50) experiments were conducted following dose-response curves that were determined according to the National Cancer Institute (NCI), National Institute of Health (NIH) guidelines. In brief, cell suspensions were plated into 96-well plates in 100 μl growth media. Inoculates were allowed a pre-incubation period of 24 hours at 37° C. for stabilization. Cells were treated with 9 doses in triplicates for 72 hours with GSK461364 or GSK1070916. Cell proliferation was measured with CellTiter-Glo® Luminescent Cell Viability Assay (Promega, Madison, Wis.). After subtraction of the baseline (the viability of the cells just before treatment, time 0), the absorbance was plotted. Total growth inhibition doses and 50% growth inhibition doses GI50 were calculated by GraphPad Prism4 software (GraphPad Software, Inc., La Jolla, Calif.).
# Human non-malignant and breast cancer cell lines have been established from normal and human breast cancer samples. The cell lines described in this study derived from 49 malignant and 4 non-malignant breast tissues and growth conditions for the cell lines have been reported previously This resource consists of nearly 54 well-characterized breast cell lines with information on genomic and gene expression signatures. The cell incubational condition of the cell lines was shown previously by some of the inventors in Neve, R. M. et al. Cancer Cell 10, 515-527 (2006).
# The small-molecule inhibitors for PLK1 (GSK461364), CENPE (GSK923295) and AURKB (GSK1070916) were provided by GlaxoSmithKline, Inc. Stock solutions were made at a concentration of 10 mM in DMSO and stored at −20° C. Compounds were diluted (1:5 serial dilution) to produce test drug concentrations ranging from 0.0768 nM to 30 μM.
# Dose-response curves were determined according to the National Cancer Institute NIH guidelines. In brief, cell suspensions were aliquoted into 96-well plates in 100 μl growth media. Inoculates were allowed a preincubation period of 24 hours at 37° C. for stabilization. Cells were treated with 9 doses in triplicate for 72 hours with GSK461364 or GSK1070916. Cell proliferation was measured with CellTiter-Glo® Luminescent Cell Viability Assay (Promega, Madison. WI). After subtraction of the baseline (an estimate of the number of the cells just before treatment, time 0), the absorbance was plotted. Total growth inhibition doses and 50% growth inhibition doses GI50 were calculated by GraphPad Prism4 software (GraphPad Software, Inc., La Jolla, Calif.).
# The correlation among the cellular GI50 values of GSK461364, GSK1070916 and GSK92325 was examined by Pearson correlation test. Tumor expression profiles were clustered using the mitotic network genes. Kaplan-Meier survival curves were generated for patients stratified into groups of high (upper tertile) and low (lower tertile) MNAI to evaluate differences in disease-free survival (DFS). […]
# [3] = tested on: HJURP protein in MDAMB231; test: HJURP protein level by Western blot after HJURP shRNA; conditions: stable transfectants in MDAMB231, Western blotting, FIG. 20e
# Procedure: For Western blots, […] of protein extracts per lane were electrophoresed with denaturing sodium doedecyl sulfate (SDS)-polyacrylamide gels (4% to 12%), transferred to PVDF membranes (Millipore, Temecula, Calif., USA), and incubated with HJURP antibody 1:500 (Rabbit, HPA008436, Sigma-Aldrich, St. Louis, Mo., USA) and actin (goat, sc-1616, Santa Cruz Biotechnology, Santa Cruz, Calif., USA) diluted with blocking buffer (927-40000, LI-COR Biosciences, Lincoln, Nebr., USA) The membranes were washed four times with TBST and treated with 1:10,000 dilution of Alex Fluor 680 donkey anti-rabbit (A10043 Invitrogen, Carlsbad, Calif., USA) and IRDye 800CW conjugated donkey anti-goat (611-731-127, Rockland, Gilbertsville, Pa., USA) to detect HJURP and actin respectively. The signals were detected by infrared imaging (LI-COR Biosciences, Lincoln, Nebr., USA). Images were recorded as TIFF files for quantification.
# Protein levels were measured by quantifying infrared imaging recorded from labeled antibodies using Scion Image. For each protein, the blots were made for 7 sets of 11 cell lines, each set including the same pair (SKBR3 and MCF12A) to permit intensity normalization across sets. […]
# Seventy-two hours after radiation, we measured cell growth and apoptosis using high-content image analysis. […]
# [4] = tested on: cells with HJURP shRNA; test: Growth of cells with HJURP shRNA (data not shown)
# [5] = tested on: MDAMB231 breast cancer cells; test: Radiation sensitivity, high content imaging of cell number and apoptotic cells; conditions: MDAMB231, 72 hours after X-ray radiation, FIG. 20f
# Procedure: MDAMD231 cells are more sensitive to radiation treatment than T47D cells. […] There are more apoptosis in MDAMB231 cells than T47D cells. […] BT20 cells are more sensitive to radiation treatment than MCF10A cells. […] There are more apoptosis in BT20 cells than MCF10A cells.
# High content imaging to assess cell number and apoptotic cells. The effects on cell growth and apoptosis were assessed by a Cellomics high-content image screening system (Cellomics, Thermo Fisher Scientific Inc., Pittsburgh, Pa., USA) after breast cancer cells exposed to a single dose of 0 (sham), 1, 2, 4, 6, 8 or 10 Gy X-ray radiation emitted from an irradiator (model 43855F, Faxitron X-ray Corporation, Lincolnshire, Ill., USA). Live cells in 96 well plates with six replicates from each treatment were stained with 1 μmol/L YO-PRO-1 positive cells.
# Seventy-two hours after radiation, we measured cell growth and apoptosis using high-content image analysis. […] Similar results were found in additional cell lines BT20 with high levels of HJURP and MCF10A with low levels of HJURP (FIG. 20c, d). Finally we designed […] (shRNA) against HJURP and generated stable transfectants in a human breast cancer cell line (MDAMB231).
Molecule,response to combination of compounds against two different mitotic apparatus proteins versus alone [1],GI50 values in cell lines with a high MNAI as compared to a low MNAI [2],effectiveness by breast cancer subtype [2],down-regulation of HJURP protein levels [3] [%],cell growth [4],sensitivity to radiation [5]
C[C@@H](Oc1cc(-n2cnc3ccc(CN4CCN(C)CC4)cc32)sc1C(N)=O)c1ccccc1C(F)(F)F [GSK461364],did not increase the response in either cell type,significantly lower in cell lines with a high MNAI,most effective against basal cell breast cancer subtypes,,,
CC(C)Oc1ccc(C(=O)N[C@H](CNC(=O)CN(C)C)Cc2ccc(-c3cn4cccc([C@H](C)O)c4n3)cc2)cc1Cl [GSK923295],did not increase the response in either cell type,significantly lower in cell lines with a high MNAI,most effective against basal cell breast cancer subtypes,,,
CCn1cc(-c2ccnc3[nH]c(-c4cccc(CN(C)C)c4)cc23)c(-c2ccc(NC(=O)N(C)C)cc2)n1 [GSK1070916],did not increase the response in either cell type,significantly lower in cell lines with a high MNAI,most effective against basal cell breast cancer subtypes,,,
HJURP shRNA: shRNA against HJURP (SEQ ID NO: 56 and 57) cloned into pSUPER.retro.puro retroviral vector (nucleic acid) sense: GATCCCCGAGCGATTCATCTTCATCATTCAAGAGATGATGAAGATGAATCGCTCTTTTTGGAA antisense: AGCTTTTCCAAAAAGAGCGATTCATCTTCATCATCTCTTGAATGATGAAGATGAATCGCTCGGG,,,,75,grew slowly,reduced the sensitivity to radiation
